According to paper PMC4059401 (Xenobiotica; the fate of foreign compounds in biological …, 2013):

Legend:
CYP3A4 = CYP3A4 (Homo sapiens, UniProt P08684); assay: metabolite formation by recombinant CYP Supersomes, LC/MS; assay type: cell-based
CYP2D6 = CYP2D6 (Homo sapiens, UniProt P10635); assay: UV-visible spectral binding titration, purified enzyme
CYP1A2 = CYP1A2 (Homo sapiens, UniProt P05177); assay: metabolite formation by recombinant CYP Supersomes, LC/MS; assay type: cell-based
CYP1A2, sequence (P16435 2-677): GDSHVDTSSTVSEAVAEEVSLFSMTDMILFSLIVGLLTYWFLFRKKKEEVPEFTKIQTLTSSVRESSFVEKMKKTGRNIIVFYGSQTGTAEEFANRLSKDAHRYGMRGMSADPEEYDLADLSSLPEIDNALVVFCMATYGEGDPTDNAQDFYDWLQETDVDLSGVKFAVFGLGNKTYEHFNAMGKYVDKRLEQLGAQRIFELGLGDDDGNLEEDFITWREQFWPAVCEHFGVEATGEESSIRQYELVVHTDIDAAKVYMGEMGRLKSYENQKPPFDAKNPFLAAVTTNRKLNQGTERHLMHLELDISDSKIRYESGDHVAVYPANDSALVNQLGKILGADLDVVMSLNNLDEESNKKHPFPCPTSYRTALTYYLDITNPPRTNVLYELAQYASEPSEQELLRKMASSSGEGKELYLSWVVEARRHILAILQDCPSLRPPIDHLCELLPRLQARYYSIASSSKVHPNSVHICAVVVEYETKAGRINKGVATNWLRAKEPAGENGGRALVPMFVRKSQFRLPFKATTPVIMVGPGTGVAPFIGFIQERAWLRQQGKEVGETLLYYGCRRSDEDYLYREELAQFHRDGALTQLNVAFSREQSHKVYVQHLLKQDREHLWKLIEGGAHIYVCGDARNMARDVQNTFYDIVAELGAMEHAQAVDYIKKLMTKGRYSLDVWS
CYP1A2, sequence (P05177 2-516): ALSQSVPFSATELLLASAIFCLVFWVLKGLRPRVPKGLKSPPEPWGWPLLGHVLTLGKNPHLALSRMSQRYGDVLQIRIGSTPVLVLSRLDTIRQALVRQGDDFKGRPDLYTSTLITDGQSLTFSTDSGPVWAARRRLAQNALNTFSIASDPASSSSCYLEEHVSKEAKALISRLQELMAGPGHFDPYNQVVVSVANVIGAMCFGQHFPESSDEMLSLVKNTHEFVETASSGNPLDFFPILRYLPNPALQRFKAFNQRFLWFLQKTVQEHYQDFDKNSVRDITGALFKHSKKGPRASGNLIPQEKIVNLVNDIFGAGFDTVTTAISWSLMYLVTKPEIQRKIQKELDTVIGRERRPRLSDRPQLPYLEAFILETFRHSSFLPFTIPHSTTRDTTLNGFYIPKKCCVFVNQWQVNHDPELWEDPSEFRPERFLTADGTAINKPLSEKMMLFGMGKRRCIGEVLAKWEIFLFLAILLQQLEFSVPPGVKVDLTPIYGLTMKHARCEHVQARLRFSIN

CYP2D6, sequence (P10635 whole entry): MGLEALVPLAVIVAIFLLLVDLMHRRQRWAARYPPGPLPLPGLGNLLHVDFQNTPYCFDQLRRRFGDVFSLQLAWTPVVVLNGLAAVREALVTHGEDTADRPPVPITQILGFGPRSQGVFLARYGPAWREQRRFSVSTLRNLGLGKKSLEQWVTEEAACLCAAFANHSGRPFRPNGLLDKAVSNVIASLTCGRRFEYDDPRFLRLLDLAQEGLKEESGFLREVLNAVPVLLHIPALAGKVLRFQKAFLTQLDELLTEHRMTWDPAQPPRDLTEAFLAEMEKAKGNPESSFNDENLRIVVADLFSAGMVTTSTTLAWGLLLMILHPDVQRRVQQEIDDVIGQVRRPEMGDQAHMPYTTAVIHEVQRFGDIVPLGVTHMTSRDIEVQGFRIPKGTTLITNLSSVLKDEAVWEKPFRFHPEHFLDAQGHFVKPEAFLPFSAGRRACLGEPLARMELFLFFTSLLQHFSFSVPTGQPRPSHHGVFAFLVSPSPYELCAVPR
CYP3A4, sequence (P16435 2-677): as the sequence (P16435 2-677) above
CYP3A4, sequence (P08684 2-503): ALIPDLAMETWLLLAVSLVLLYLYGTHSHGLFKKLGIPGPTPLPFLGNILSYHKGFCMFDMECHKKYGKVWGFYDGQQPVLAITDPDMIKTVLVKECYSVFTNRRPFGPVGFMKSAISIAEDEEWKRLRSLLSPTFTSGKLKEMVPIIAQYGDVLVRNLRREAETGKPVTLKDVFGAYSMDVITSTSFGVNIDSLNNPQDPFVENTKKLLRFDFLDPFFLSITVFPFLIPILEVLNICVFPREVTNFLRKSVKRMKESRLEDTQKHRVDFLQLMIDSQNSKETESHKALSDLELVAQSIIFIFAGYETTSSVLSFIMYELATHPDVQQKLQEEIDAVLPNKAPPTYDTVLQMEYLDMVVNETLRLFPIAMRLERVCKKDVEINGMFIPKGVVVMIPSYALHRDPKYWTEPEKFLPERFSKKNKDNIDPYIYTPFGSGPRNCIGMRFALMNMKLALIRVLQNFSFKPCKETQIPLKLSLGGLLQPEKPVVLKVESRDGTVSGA

SMILES: CCN(CC)CCNC(=O)c1cc(Cl)c(N)cc1OC [Metoclopramide, 4-amino-5-chloro-N-(2-(diethylamino)ethyl)-2-methoxybenzamide]
- metabolite formation by recombinant CYP Supersomes, LC/MS (CYP3A4): All three monooxygenation products (M4a, M4b, M4c) were formed by CYP3A4 and CYP2D6
- Kd (CYP2D6): 9.56 ± 1.09 µM
- metabolite formation by recombinant CYP Supersomes, LC/MS (CYP1A2): CYPs 1A2, 2C9, 2C19, and 3A4 also metabolized metoclopramide.
